Experimental data: patent publication US9750805B2, “Calcium flux agonists and methods therefor” (Nant Holdings IP, LLC, priority 2012, dated 2017)

What was measured:
[1] = tested on: TLR (TLR2, TLR4, TLR5, TLR9) and NOD (NOD1, NOD2) family members; assay: IL-8 production with TLR and NOD ligands plus suboptimal calcium flux agonist (FIGS. 3A-3E); format: cell-based, human; settings: suboptimal doses: 20 nM thapsigargin, 316 nM A23187, 1 μM ionomycin, 10 μM cyclopiazonic acid, 31.6 μM DBHQ
Procedure: To investigate if that observation was also true for other pattern recognition receptors, and especially for TLR and NOD receptors and other ligands, the inventors tested numerous TLR and NOD receptors and various ligands.
The doses used in this experiment were 20 nM for thapsigargin, 316 nM for A23187, 1 μM for ionomycin, 10 μM for cyclopiazonic acid, and 31.6 μM for DBHQ.
Thus, a clear pattern of adjuvant activity of calcium flux agonists on the immune response, and especially on IL-8 production and NF-κB signaling is evident where the immune response is associated with a TLR- or NOD-mediated event.

[2] = tested on: TLR2 ligand response of THP-1 promonocytic leukemia cell line; assay: IL-8 release with TLR2 ligand plus suboptimal calcium flux agonist (FIG. 2); format: cell-based, human; settings: THP-1 cells, suboptimal doses of ionophore; beyond cumulative individual responses (synergy)
Procedure: (§1) For example, human promonocytic THP-1 cells were incubated in the presence or absence of a suboptimal dose of the TLR2 ligand Pam2CSK4 and compared to similarly treated cells which also received suboptimal doses of ionophore (here: A23187 and ionomycin). […] In another example, NF-κB THP-1 cells (a THP-1-derived transfectant line harboring an NF-κB-driven luciferase expression cassette) were cultivated in the presence or absence of a suboptimal dose of the TLR2 ligand Pam2CSK4 and compared to similarly treated cells that also received suboptimal doses of various SERCA inhibitors.
Here, the ionophores A23187 and ionomycin, as well as the SERCA inhibitor thapsigargin synergize with the TLR2 ligand (Pam2CYS) in the activation of cytokine release from the human THP-1 promonocytic leukemia cell line. It should be especially noted that while the TLR2 ligand alone provided for about 5 ng/ml IL-8 response, addition of a suboptimal dose of the calcium flux agonists (e.g. 20 nM for thapsigargin, 316 nM for A23187, and 1 μM for ionomycin) produced more than 10-fold quantities of IL-8 production in the cells.

[3] = tested on: methicillin-sensitive S. aureus (MSSA); assay: Direct antibiotic activity in liquid culture assay, MSSA; format: cell-based
Procedure: Consistent with these and previous results regarding their inherent antibiotic activity against S. aureus, the inventors confirmed the direct antibiotic activity of both ionophores for direct antibiotic activity on methicillin-sensitive S. aureus (MSSA).
To determine the antibiotic sensitivity of S. aureus, cultures were grown overnight in tryptic soy broth (Cellgro). The resulting cultures were used to inoculate new cultures to ensure log phase growth prior to the start of the experiment. Once the bacteria had reached log phase the bacteria was diluted to the appropriate OD600˜0.05 and transferred to a 24-well plate. Compounds of interest were added and plates were incubated in a shaking incubator at 37° C. Aliquots were removed at various time points and their respective OD600 was measured using a BioTek Synergy2 microplate reader (BioTek, Winooski, Vt.). For wells whose turbidity was affected by the addition of the compounds of interest, aliquots were removed and plated on tryptic soy agar (Cellgro) and incubated overnight in a 37° C. incubated and counted the following day. Thus, it should be appreciated that the calcium flux agonists are effective in antimicrobial treatments via an indirect effect, most likely due to the enhanced production of IL-8 and increased NF-κB-driven transcription.

[4] = tested on: THP-1 cells; assay: Human IL-8 activity, dose response of calcium flux agonists without added TLR or NOD ligand; format: cell-based; settings: 24 hours, increasing concentrations, no added TLR or NOD ligand, FIGS. 1A-1C
Excerpt: The inventors performed several studies to identify the effect of calcium flux agonists on various components of an immune response, and particularly on the effect of calcium flux agonists on IL-8 production and activation of NF-κB signaling. […] The dose response is observed over relatively large windows for ionophores (e.g., A23187 and ionomycin) and over at least two orders of magnitude for SERCA inhibitors (e.g., thapsigargin).
More specifically, the dose response of ionophores on NF-κB and IL-8 is shown in FIGS. 1A-1B using a monocyte-derived cell line to treatment and A23187 and ionomycin in the absence of externally added TLR or NOD ligands. […] FIG. 1C depicts the dose response to thapsigargin on NF-κB and IL-8.
Human IL-8 activity: A titration of thapsigargin (A.G. Scientific, San Diego Calif.), ionomycin (Sigma-Aldrich, St. Louis Mo.), and the calcium ionophore A23187 (Sigma-Aldrich) was added to a 96-well plate (Thermo Matrix, Waltham Mass.) seeded with 150,000 THP-1 cells (ATCC TIB-202) grown in RPMI 1640 (Cellgro, Herndon VA) supplemented with 10% FBS (Thermo HyClone, Waltham Mass.) and 1% penicillin-streptomycin-fungizone (Thermo HyClone). 24 hours after addition, 25 uL of supernatant was removed and assayed for human IL-8 using the Meso Scale Discovery Human IL-8 Tissue Culture Kit (MSD, Rockville, Md.) per manufacturer's protocol. The results were analyzed using the Meso Scale Discovery SECTOR Imager 2400 and normalized to a titration of human IL-8 supplied by the MSD Kit.

[5] = tested on: S. aureus; assay: Killing of intracellular S. aureus by thapsigargin-treated differentiated THP-1 cells (FIG. 11); format: cell-based, human; settings: 1 day with 20 nM thapsigargin vs vehicle, MOI of 10
Procedure: Briefly, a logarithmically dividing S. aureus was pelleted (2000×g for 10 min) and washed three times with Hank's Buffered Salt Solution (Cellgro). Concurrently, 2 day differentiated THP-1 cells (using 1 uM retinoic acid and 1 uM cholecalciferaol, Sigma-Aldrich) followed by 1 day with 20 nM thapsigargin or vehicle were collected and washed in Hank's Buffered Salt Solution. Differentiated cells were supplemented with 10% human serum (Innovative Research) and chilled on ice for 30 minutes. After the 30 minutes, S. aureus (MOI of 10) was added on ice for an additional 20 minutes to synchronize binding. Tubes were then incubated for 20 minutes at 37° C. After 20 minutes, 10 U/mL of lysostaphin (Sigma-Aldrich) was added to eliminate non-internalized bacteria. At the desired time points (20, 30, 60 minutes) 20 uL aliquots were removed and diluted into 10 mL of water. The dilution tubes were vortex and allowed to sit at room temp for 10 minutes to ensure proper lysis of the primary cells. After 10 minutes, the dilution tubes were centrifuged for 10 minutes at 2000×g and the remaining S. aureus was concentrated 20 fold and plated in triplicate on tryptic soy agar (Cellgro) and incubated overnight at 37° C. prior to colony enumeration.

[6] = target: sarco/endoplasmic reticulum Ca2+ ATPases (SERCA); settings: cited from earlier work
[7] = tested on: NF-κB THP-1 cells; assay: NF-κB luciferase reporter synergy with TLR2 ligand and effect of Ca2+ modulating compounds (FIG. 4); format: cell-based, human; settings: NF-κB THP-1 cells, suboptimal doses of SERCA inhibitors; beyond cumulative individual responses (synergy)
Procedure: as §1
The inventors further investigated if the nature of calcium flux was of significance as increased intracellular calcium may have different origins. To that effect, the inventors used various calcium signaling modulators to investigate the nature of the calcium flux and contribution. As can be readily taken from the data shown, extracellular calcium flux into the cell was critical for synergistic amplification of calcium signaling. More specifically, FIG. 4 illustrates the effects of different Ca^2+ modulating compounds on synergy with respect to NF-κB activation.

CNc1ccc2oc(C[C@H]3O[C@@]4(CC[C@H]3C)O[C@H]([C@H](C)C(=O)c3ccc[nH]3)[C@H](C)C[C@H]4C)nc2c1C(=O)O [A23187, calcimycin]
effect on IL-8 production with TLR and NOD ligands [1]: synergistic effect | amount of IL-8 produced with suboptimal TLR2 ligand Pam2CSK4 [2]: significantly increased | direct antibiotic activity against MSSA [3]: the more active compound | IL-8 production [4]: significant increases

C[C@H](CCC(=O)O)C[C@H](C)C[C@H](C)C(=O)/C=C(\O)[C@H](C)C[C@H](C)C/C=C/[C@@H](C)[C@@H](O)[C@@H](C)[C@@H](O)C[C@@H]1CC[C@@](C)([C@H]2CC[C@@](C)([C@@H](C)O)O2)O1 [ionomycin]
effect on IL-8 production with TLR and NOD ligands [1]: synergistic effect | amount of IL-8 produced with suboptimal TLR2 ligand Pam2CSK4 [2]: significantly increased | IL-8 production [4]: significant increases

C/C=C(/C)C(=O)O[C@H]1C(C)=C2[C@H]([C@@H]1OC(=O)CCCCCCC)[C@@](C)(OC(C)=O)C[C@H](OC(=O)CCC)[C@@]1(O)[C@H]2OC(=O)[C@@]1(C)O [thapsigargin]
effect on IL-8 production with TLR and NOD ligands [1]: synergistic effect | antimicrobial activity of treated cells against internalized S. aureus [5]: greater antimicrobial activity | affinity constant of Thapsigargin:SERCA binding [6]: low picomolar range | IL-8 production [4]: significant increases | amount of luciferase produced with suboptimal TLR2 ligand Pam2CSK4 [7]: significantly increased
